According to publication PMC5667785 (International Journal of Nanomedicine, 2017):

Experiments:
[1] = Cur stability in Krebs–Ringer intestinal circulation-perfusion solution; type: physicochemical; conditions: 2 hours at 37°C
liver microsomal enzymes = conditions: within 30 minutes ref 14; cited from earlier work
[2] = Critical micelle concentration by surface-tension measurements; type: physicochemical

| Compound | Cur stability in the KR solution [1] | Biotransformation of Cur to sulfate or glucuronide conjugates (liver microsomal enzymes) [%] | Critical micelle concentration [2] [µg/mL] |
| --- | --- | --- | --- |
| COc1cc(/C=C/C(=O)CC(=O)/C=C/c2ccc(O)c(OC)c2)ccc1O [Cur, Curcumin] | neither degraded | 90 |  |
| TCA-PEG100-monostearate [S100-TCA] |  |  | 15.86 ± 0.53 |
